Source: patent US20240216401A1, “COMBINATION THERAPY BY USING AKR1C3-ACTIVATED COMPOUND WITH IMMUNE CHECKPOINT INHIBITOR” (OBI Pharma, Inc., priority 2021, published 2024)
Several values for one entry are separate records, joined by “and”; a condition that tells them apart may be missing. Identical values can stand only once. Entries after “also recorded” stand apart in the source; their conditions may differ.

Experiments:
Assay type in all cases: in vivo, Mus musculus
HepG2 tumor = experiment: Example 1: tumor volume, tumor weight and TGI in HepG2 tumor bearing humanized mice
Description: (§1) Each group contains five mice. The human hepatocellular carcinoma cell line HepG2 were subcutaneously inoculated to the advanced immune deficiency mice. Total of 30 mice were included in this study.
2.2. […] The subcutaneous injection volume was […].
(§2) 3.1. […] The injection was performed using insulin syringe with the dosage of 10 mg/kg (Dosage of injection was changed to 20 mg/kg from Day 15) and injection volume of 10 mL/kg. […] The reference item was administered for G1. The procedure followed the standards of sample administration.
(§3) 3.2. The test item anti-hPD-L1 antibody or reference items were intraperitoneally injected to the mice on Day 8 after the inoculation of tumor cells. The injection was performed using insulin syringe with the dosage of 10 mg/kg (Dosage of injection was changed to 20 mg/kg from Day 15) and injection volume of 10 mL/kg. The test item anti-hPD-L1 was continuously administered on Day 8, 11, 15, 18, 22, 25, 29 and 32 for G4 and G6. The reference item was administered for G1. The procedure followed the standards of sample administration.
(§4) 3.3. […] The injection was performed using insulin syringe with the dosage of 1 mg/kg and injection volume of 5 mL/kg. […] The reference item was administered for G1. The procedure followed the standards of sample administration.
The measurement was performed from the next day of the inoculation. The tumor volumes were measured and recorded twice a week (Mon., Thur.). Tumor volume was calculated by ellipsoid equation according to the records ((major axis×minor axis×minor axis)×(π/6)).
Tumor volumes were used to calculate tumor growth inhibition (TGI) rates according to the following formula: TGI (%)=[1−(Ti−T0)/(Ci−C0)]×100, where Ti and Ci indicate the mean tumor volume in the treatment groups and vehicle group at the end of the experiment (Day 35). Whereas, T0 and C0 indicate the mean tumor volumes in the treatment group and vehicle group at the beginning of the experiment (Day 1).
(§5) Mice were sacrificed by CO2 euthanasia at the end of the study duration, and the connective tissue around tumor was resected. The tumor samples were then removed and weighed. The half tissue was fixed in 10% formaldehyde and then embedded in paraffin; the other half was prepared for the isolation of tumor-infiltrating lymphocytes (TILs).

[1] = Example 1: body weight and mortality of HepG2 tumor bearing humanized mice; conditions: OBI-3424 1 mg/kg IV, antibody 10 mg/kg IP (20 from Day 15)
Description: as §1, §2, §3, §4
The measurement was performed from the next day of the inoculation. The animal body weights were measured and recorded twice per week.

[2] = test system: CD8^+ cytotoxic T cells (CTL) in tumor-infiltrating lymphocytes; experiment: Example 1: flow cytometry, percentage of CTL cells in TILs
Description: as §5
(§6) The half of mouse tumors were dissected into smaller fragments using scalpels and then digested with a cocktail of collagenase, DNase I, and Hyaluronidase (Collagenase #C5138, DNase I #D5025, Hyaluronidase #H6254, SigmaAldrich) for at least 2 hours.
(§7) Cells were stained with the fluorescently conjugated surface antibodies and incubated for 30 minutes at 4° C., and then resuspended in staining buffer for flow cytometric analysis. Flow cytometry was done using a Navios EX Flow Cytometer (Beckman Coulter). Data were analyzed using the Kaluza Analysis Software (Beckman Coulter).

[3] = test system: CD4^+ T helper cells in tumor-infiltrating lymphocytes; experiment: Example 1: flow cytometry, percentage of TH cells in TILs; conditions: individual mice
Description: as §5, §6, §7

[4] = test system: NK cells in tumor-infiltrating lymphocytes; experiment: Example 1: flow cytometry, percentage of NK cells in TILs; conditions: individual mice
Description: as §5, §6, §7

[5] = test system: PD-L1^+ cells in tumor-infiltrating lymphocytes; experiment: Example 1: flow cytometry, percentage of PD-L1 cells in TILs; conditions: individual animal
Description: as §5, §6, §7

[6] = TILs, flow cytometer, individual mice
[7] = TILs, gate CD45^+CD8^+ cells, individual mice

C[C@H](OP(=O)(N1CC1)N1CC1)c1ccc([N+](=O)[O-])c(Oc2cccc(C(=O)N(C)C)c2)c1 [OBI-3424, (S)-1-(3-(3-N,N-dimethylaminocarbonyl)phenoxyl-4-mtrophenyl)-1-ethyl-N,N′-bis(ethylene)phosphoramidate]
Tumor volume, Mean (HepG2 tumor; D 1, group mean, OBI-3424 1 mg/kg IV, antibody 10 mg/kg IP (20 from Day 15)): 397.08 mm^3
Tumor volume, Mean (HepG2 tumor; D 4, group mean, OBI-3424 1 mg/kg IV, antibody 10 mg/kg IP (20 from Day 15)): 295.20 mm^3
Tumor volume, Mean (HepG2 tumor; D 7, group mean, OBI-3424 1 mg/kg IV, antibody 10 mg/kg IP (20 from Day 15)): 298.28 mm^3
Tumor volume, Mean (HepG2 tumor; D 11, group mean, OBI-3424 1 mg/kg IV, antibody 10 mg/kg IP (20 from Day 15)): 344.17 mm^3
Tumor volume, Mean (HepG2 tumor; D 14, group mean, OBI-3424 1 mg/kg IV, antibody 10 mg/kg IP (20 from Day 15)): 385.09 mm^3
Tumor volume, Mean (HepG2 tumor; D 18, group mean, OBI-3424 1 mg/kg IV, antibody 10 mg/kg IP (20 from Day 15)): 535.36 mm^3
Tumor volume, Mean (HepG2 tumor; D 21, group mean, OBI-3424 1 mg/kg IV, antibody 10 mg/kg IP (20 from Day 15)): 627.45 mm^3
Tumor volume, Mean (HepG2 tumor; D 25, group mean, OBI-3424 1 mg/kg IV, antibody 10 mg/kg IP (20 from Day 15)): 773.19 mm^3
Tumor volume, Mean (HepG2 tumor; D 28, group mean, OBI-3424 1 mg/kg IV, antibody 10 mg/kg IP (20 from Day 15)): 718.91 mm^3
Tumor volume, Mean (HepG2 tumor; D 32, group mean, OBI-3424 1 mg/kg IV, antibody 10 mg/kg IP (20 from Day 15)): 643.09 mm^3
Tumor volume, Mean (HepG2 tumor; D 35, group mean (mean±SEM), OBI-3424 1 mg/kg IV, antibody 10 mg/kg IP (20 from Day 15)): 590.62±164.32 mm^3 and 590.62 mm^3
Tumor weight, Mean (HepG2 tumor; D 35, group mean, OBI-3424 1 mg/kg IV, antibody 10 mg/kg IP (20 from Day 15)): 274.44 mg
mean tumor volume compared with vehicle (in words) (HepG2 tumor; Day 35, vs vehicle (G1), Student's t-test): Significantly reduced; also recorded: significantly suppressed
effect on tumor growth (conclusion in words) (HepG2 tumor; HepG2 humanized mouse model): efficiently anti-tumor effect
TGI (HepG2 tumor; from mean tumor volumes Day 35 vs Day 1, relative to vehicle, OBI-3424 1 mg/kg IV, antibody 10 mg/kg IP (20 from Day 15)): 83.13%
tumor weight compared with vehicle (in words) (HepG2 tumor; sacrifice Day 36, vs vehicle (G1)): significantly suppressed
Body Weight, Mean ([1]; Day 18, group mean): 24.23 g
Body Weight, Mean ([1]; Day 21, group mean): 24.04 g
CD8^+ cytotoxic T cells (CTL) population in tumors compared with vehicle (in words) ([2]; Example 1, TILs at sacrifice, flow cytometry): significantly elevated
CD25^+ CTL cells (CD45^+CD8^+ CD25^+) Total % [2, 6]: 0.27% and 0.30% and 0.77% and 0.52% and 0.28%
CTL cells (CD45^+CD8^+) Total % [2, 6]: 20.93% and 12.12% and 21.14% and 45.53% and 36.08%
PD-1^+ CTL cells (CD45^+CD8^+ PD-1^+) Total % [2, 6]: 21.41% and 12.30% and 20.63% and 41.26% and 28.90%
CTL cells (CD45^+CD8^+) CD45^+ Gated % ([2]; TILs, gate CD45^+ cells, individual mice): 49.08% and 66.81% and 72.14% and 74.09% and 57.70%
CD25^+ CTL cells (CD45^+CD8^+ CD25^+) CTL Gated % [2, 7]: 1.27% and 2.48% and 3.64% and 1.13% and 0.78%
PD-1^+ CTL cells (CD45^+CD8^+ PD-1^+) CTL Gated % [2, 7]: 92.13% and 91.25% and 99.25% and 91.79% and 85.06%
CD25^+ CTL cells (CD45^+CD8^+ CD25^+) Cell count ([2]; TILs, individual mice): 0.12 ×10^5 and 0.22 ×10^5 and 0.63 ×10^5 and 0.13 ×10^5 and 0.11 ×10^5
CTL cells (CD45^+CD8^+) Cell count ([2]; TILs, individual mice): 9.13 ×10^5 and 8.93 ×10^5 and 17.29 ×10^5 and 11.11 ×10^5 and 14.65 ×10^5
PD-1^+ CTL cells (CD45^+CD8^+ PD-1^+) Cell count ([2]; TILs, individual mice): 9.33 ×10^5 and 9.07 ×10^5 and 16.88 ×10^5 and 10.07 ×10^5 and 11.73 ×10^5
CD25^+ TH cells (CD45^+CD4^+ CD25^+) Total % ([3]; flow cytometer): 1.06% and 0.68% and 0.82% and 0.52% and 0.53%
PD-1^+ TH cells (CD45^+CD4^+ PD-1^+) Total % ([3]; flow cytometer): 19.45% and 9.29% and 13.77% and 15.00% and 16.75%
TH cells (CD45^+CD4^+) Total % ([3]; flow cytometer): 18.53% and 9.14% and 14.30% and 14.34% and 16.81%
TH cells (CD45^+CD4^+) CD45^+ Gated % ([3]; gate CD45^+ cells): 43.45% and 50.36% and 48.78% and 23.33% and 26.88%
CD25^+ TH cells (CD45^+CD4^+CD25^+) TH Gated % ([3]; gate CD45^+CD4^+ cells): 5.70% and 7.39% and 5.74% and 3.63% and 3.15%
PD-1^+ TH cells (CD45^+CD4^+ PD-1^+) TH Gated % ([3]; gate CD45^+CD4^+ cells): 99.46% and 98.15% and 99.75% and 97.06% and 97.78%
CD25^+ TH cells (CD45^+CD4^+ CD25^+) Cell count [3]: 0.46 ×10^5 and 0.50 ×10^5 and 0.67 ×10^5 and 0.13 ×10^5 and 0.22 ×10^5
PD-1^+ TH cells (CD45^+CD4^+ PD-1^+) Cell count [3]: 8.48 ×10^5 and 6.85 ×10^5 and 11.26 ×10^5 and 3.66 ×10^5 and 6.80 ×10^5
TH cells (CD45^+CD4^+) Cell count [3]: 8.08 ×10^5 and 6.74 ×10^5 and 11.70 ×10^5 and 3.50 ×10^5 and 6.82 ×10^5
CD16^+ NK cells (CD45^+CD56^+ CD16^+) Total % ([4]; flow cytometer): 0.39% and 0.21% (2×) and 0.24% and 0.17%
NK cells (CD45^+CD56^+) Total % ([4]; flow cytometer): 2.47% and 1.62% and 1.15% and 2.73% and 1.39%
PD-1^+ NK cells (CD45^+CD56^+PD-1^+) Total % ([4]; flow cytometer): 3.26% and 1.51% and 1.63% and 2.76% and 2.38%
NK cells (CD45^+CD56^+) CD45^+ Gated % ([4]; gate CD45^+ cells): 6.06% and 9.96% and 4.16% and 5.20% and 2.33%
CD16^+ NK cells (CD45^+CD56^+ CD16^+) NK Gated % ([4]; gate CD45^+CD56^+ cells): 15.62% and 12.65% and 20.43% and 7.71% and 11.87%
PD-1^+ NK cells (CD45^+CD56^+PD-1^+) NK Gated % ([4]; gate CD45^+CD56^+ cells): 88.81% and 88.82% and 97.60% and 90.05% and 83.33%
CD16^+ NK cells (CD45^+CD56^+ CD16^+) Cell count [4]: 0.17 ×10^5 and 0.15 ×10^5 and 0.20 ×10^5 and 0.05 ×10^5 and 0.07 ×10^5
NK cells (CD45^+CD56^+) Cell count [4]: 1.08 ×10^5 and 1.19 ×10^5 and 0.94 ×10^5 and 0.67 ×10^5 and 0.56 ×10^5
PD-1^+ NK cells (CD45^+CD56^+PD-1^+) Cell count [4]: 1.42 ×10^5 and 1.11 ×10^5 and 1.33 ×10^5 and 0.67 ×10^5 and 0.97 ×10^5
CD45^+ cells Cell count (×10^6) [5]: 1.86 ×10^6 and 1.34 ×10^6 and 2.40 ×10^6 and 1.50 ×10^6 and 2.54 ×10^6
CD45^+ cells Gated % [5]: 58.88% and 28.16% and 40.69% and 79.75% and 79.11%
CD45^+ cells Total % [5]: 42.64% and 18.14% and 29.31% and 61.46% and 62.53%
Total PD-L1^+ cells (PD-L1^+) Cell count (×10^5) [5]: 2.17 ×10^5 and 14.22 ×10^5 and 4.16 ×10^5 and 0.26 ×10^5 and 0.25 ×10^5
Total PD-L1^+ cells (PD-L1^+), Total % [5]: 4.97% and 19.30% and 5.09% and 1.08% and 0.62%
Total PD-L1^+ cells (PD-L1^+), Total cells Gated % [5]: 5.67% and 24.15% and 6.02% and 1.15% and 0.65%
Total cells Cell count (×10^6) [5]: 3.82 ×10^6 and 5.89 ×10^6 and 6.92 ×10^6 and 2.30 ×10^6 and 3.83 ×10^6
Total cells Gated % [5]: 87.63% and 79.89% and 84.57% and 94.06% and 94.44%
Total cells Total % [5]: 87.63% and 79.89% and 84.57% and 94.06% and 94.44%
